From ChEMBL document CHEMBL1126412, “RP 70676: A potent systematically available inhibitor of acyl-CoA:cholesterol O-acyl transferase (ACAT)” (Bioorg Med Chem Lett, 1992)

What was measured:
[1] = target: T1, Sterol O-acyltransferase 1 (Rattus norvegicus, UniProt O70536); experiment: Concentration required for the inhibition of cholesterol O-acyl transferase (ACAT) from rat liver
T1 sequence (O70536 whole entry): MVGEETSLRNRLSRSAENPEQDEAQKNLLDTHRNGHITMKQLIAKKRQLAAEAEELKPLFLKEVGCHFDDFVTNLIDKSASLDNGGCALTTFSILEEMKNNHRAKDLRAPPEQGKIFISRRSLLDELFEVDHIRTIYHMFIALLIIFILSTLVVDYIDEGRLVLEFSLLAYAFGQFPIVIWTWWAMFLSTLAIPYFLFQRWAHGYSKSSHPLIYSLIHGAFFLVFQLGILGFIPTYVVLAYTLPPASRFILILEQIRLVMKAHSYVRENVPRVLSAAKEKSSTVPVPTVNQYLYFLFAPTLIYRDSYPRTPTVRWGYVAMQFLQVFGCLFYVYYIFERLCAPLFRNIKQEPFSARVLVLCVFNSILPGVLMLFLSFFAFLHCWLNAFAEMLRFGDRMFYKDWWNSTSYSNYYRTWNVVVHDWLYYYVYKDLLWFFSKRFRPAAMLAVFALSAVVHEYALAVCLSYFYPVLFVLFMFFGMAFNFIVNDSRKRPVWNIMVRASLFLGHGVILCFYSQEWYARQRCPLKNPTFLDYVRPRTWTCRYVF

[2] = target: T2, Acyl-CoA:cholesterol acyltransferase (Oryctolagus cuniculus, UniProt Q95214); experiment: Concentration required for the inhibition of cholesterol O-acyl transferase (ACAT) from cholesterol fed rabbit liver
T2 sequence (Q95214 whole entry): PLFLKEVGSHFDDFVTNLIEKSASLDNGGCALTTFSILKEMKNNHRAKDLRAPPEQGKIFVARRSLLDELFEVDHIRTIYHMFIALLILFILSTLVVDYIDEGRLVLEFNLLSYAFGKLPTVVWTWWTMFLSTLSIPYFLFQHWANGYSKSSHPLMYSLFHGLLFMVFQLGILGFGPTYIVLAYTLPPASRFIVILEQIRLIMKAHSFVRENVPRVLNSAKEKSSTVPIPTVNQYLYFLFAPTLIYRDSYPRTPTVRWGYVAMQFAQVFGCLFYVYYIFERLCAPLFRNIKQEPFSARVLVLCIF

Oryctolagus cuniculus [3] = organism: Oryctolagus cuniculus; experiment: Percent change of plasma cholesterol level in NZW rabbits from control; assay type: functional
Oryctolagus cuniculus [4] = organism: Oryctolagus cuniculus; experiment: Percent change of free cholesterol levels in thoracic aorta of NZW rabbits from control; assay type: functional
Oryctolagus cuniculus [5] = organism: Oryctolagus cuniculus; experiment: Percent change of free cholesterol level in abdominal aorta of NZW rabbits form control; assay type: functional
Oryctolagus cuniculus [6] = organism: Oryctolagus cuniculus; experiment: Percent change of free cholesterol level in abdominal aorta of NZW rabbits from control; assay type: functional
Oryctolagus cuniculus [7] = organism: Oryctolagus cuniculus; experiment: Percent change of cholesterol ester level in thoracic aorta of NZW rabbits form control; assay type: functional
Oryctolagus cuniculus [8] = organism: Oryctolagus cuniculus; experiment: Percent change of cholesterol esters level in abdominal aorta of NZW rabbits from control; assay type: functional
Oryctolagus cuniculus [9] = organism: Oryctolagus cuniculus; experiment: Evaluated for the reduction of plasma cholesterol level in NZW rabbits with 0.25% cholesterol in diet; assay type: functional
Oryctolagus cuniculus [10] = organism: Oryctolagus cuniculus; experiment: Percent change of free cholesterol levels in thoracic aorta of NZW rabbits form control; assay type: functional
Oryctolagus cuniculus [11] = organism: Oryctolagus cuniculus; experiment: Percent change of plasma cholesterol level in NZW rabbits form control; assay type: functional
Oryctolagus cuniculus [12] = organism: Oryctolagus cuniculus; experiment: Percent change of cholesterol esters level in abdominal aorta of NZW rabbits form control; assay type: functional
[13] = target: T3, Sterol O-acyltransferase 1 (Cricetulus griseus, UniProt Q60457); experiment: Concentration required for the inhibition of Cholesterol O-acyl transferase from hamster liver
T3 sequence (Q60457 whole entry): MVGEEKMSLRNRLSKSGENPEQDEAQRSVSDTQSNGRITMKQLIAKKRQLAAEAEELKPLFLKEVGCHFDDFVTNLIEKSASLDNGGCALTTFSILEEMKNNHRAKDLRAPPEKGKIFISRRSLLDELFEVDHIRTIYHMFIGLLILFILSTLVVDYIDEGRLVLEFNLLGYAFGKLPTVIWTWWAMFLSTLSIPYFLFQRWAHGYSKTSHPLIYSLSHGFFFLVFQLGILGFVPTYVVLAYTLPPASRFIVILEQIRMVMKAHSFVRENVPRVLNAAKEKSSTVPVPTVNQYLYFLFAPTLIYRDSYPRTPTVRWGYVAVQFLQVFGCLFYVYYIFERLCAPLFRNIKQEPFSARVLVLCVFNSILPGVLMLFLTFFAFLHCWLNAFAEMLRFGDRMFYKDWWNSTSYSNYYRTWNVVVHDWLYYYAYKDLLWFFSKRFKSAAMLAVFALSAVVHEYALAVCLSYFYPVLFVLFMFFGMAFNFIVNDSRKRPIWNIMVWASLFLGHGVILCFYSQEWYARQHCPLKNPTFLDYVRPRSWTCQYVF

Oryctolagus cuniculus [14] = organism: Oryctolagus cuniculus; experiment: Evaluated for the reduction of plasma cholesterol level in NZW rabbits with 5% cholesterol in diet; AUC; mM.days; assay type: functional
Oryctolagus cuniculus [15] = organism: Oryctolagus cuniculus; experiment: Percent change of cholesterol ester level in thoracic aorta of NZW rabbits from control; assay type: functional

Compound | IC50 [1] | IC50 [2] | also measured
CCCCCCCN(CCCCCSc1nc(-c2ccccc2)c(-c2ccccc2)[nH]1)C(=O)Nc1ccc(F)cc1F [LECIMIBIDE] | 10 nM |  | 
Cn1ccnc1S(=O)(=O)CCCSc1nc(-c2ccccc2)c(-c2ccccc2)[nH]1 | 11 nM | 8000 nM | 
c1ccc(-c2nc(SCCCCCSc3ncc[nH]3)[nH]c2-c2ccccc2)cc1 | 44 nM | 880 nM | 
c1ccc(-c2nc(SCCCn3cccn3)[nH]c2-c2ccccc2)cc1 | 50 nM | > 1000 nM | 
Cc1cc(C)n(CCCCCSc2nc(-c3ccccc3)c(-c3ccccc3)[nH]2)n1 |  |  | Change (Oryctolagus cuniculus [3]): <-40%; Change (Oryctolagus cuniculus [4]): <-36%; Change (Oryctolagus cuniculus [5]): <-36%; Change (Oryctolagus cuniculus [6]): <-27%; Change (Oryctolagus cuniculus [7]): <-40%; Change (Oryctolagus cuniculus [8]): <-40%; AUC (Oryctolagus cuniculus [9]): 776 mM·days; Change (Oryctolagus cuniculus [10]): <-44%; Change (Oryctolagus cuniculus [11]): <-46%; Change (Oryctolagus cuniculus [12]): <-46%; IC50 [13]: 12 nM; AUC (Oryctolagus cuniculus [14]): 1440 mM·days; Change (Oryctolagus cuniculus [15]): <-42%
Cn1ccnc1SCCCCSc1nc(-c2ccccc2)c(-c2ccccc2)[nH]1 | 38 nM | 180 nM | 
Cn1ccnc1SCCCSc1nc(-c2ccccc2)c(-c2ccccc2)[nH]1 | 14 nM | 970 nM | 
c1ccc(-c2nc(SCCCCCCn3cccn3)[nH]c2-c2ccccc2)cc1 | 48 nM | 590 nM | 
c1ccc(-c2nc(SCCCCCn3cccn3)[nH]c2-c2ccccc2)cc1 | 24 nM | 280 nM | 
